Read-outs that look alike come from different tables or passages of the source. Peptide text beside a SMILES is read from it. * marks the point of attachment. X1 = O=C(c1ccccc1)c1ccccc1N*; Cbz = O=C(OCc1ccccc1)*
Biological target: T1, CCK receptor (Rattus norvegicus, UniProt P30551)
T1 construct: The whole pancreas was dissected free of fat tissue and was homogenized; from tissue; host or cells: rat whole pancreas membrane homogenate
T1 sequence (P30551 1-444): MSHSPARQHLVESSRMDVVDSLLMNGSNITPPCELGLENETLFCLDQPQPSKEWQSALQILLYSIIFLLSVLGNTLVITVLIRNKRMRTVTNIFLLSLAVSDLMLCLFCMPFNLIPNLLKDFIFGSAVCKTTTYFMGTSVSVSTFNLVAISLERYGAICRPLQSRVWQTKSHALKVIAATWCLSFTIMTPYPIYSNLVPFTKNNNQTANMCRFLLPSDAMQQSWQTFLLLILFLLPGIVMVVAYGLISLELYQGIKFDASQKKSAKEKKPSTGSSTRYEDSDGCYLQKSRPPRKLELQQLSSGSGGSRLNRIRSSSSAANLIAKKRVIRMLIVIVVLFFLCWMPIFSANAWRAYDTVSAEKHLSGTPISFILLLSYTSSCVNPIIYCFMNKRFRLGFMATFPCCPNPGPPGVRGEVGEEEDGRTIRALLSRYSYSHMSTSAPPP
Assay: CCK Receptor Binding (Pancreas), 125I-CCK-33
Parameters: species or system rats
Description: 1. CCK Receptor Binding (Pancreas)
CCK-33 was radiolabeled with ^125 I-Bolton Hunter reagent (2000 Ci/mmole) as described by Sankara et al. (J. Biol. Chem. 254: 9349-9351, 1979). Receptor binding was performed according to Innis and Snyder (Proc. Natl. Acad. Sci. 77: 6917-6921, 1980) with the minor modification of adding the additional protease inhibitors, phenylmethane sulfonyl fluoride and o-phenanthroline. The latter two compounds have no effect on the ^125I-CCK receptor binding assay.
Male Sprague-Dawley rats (200-350g) were sacrificed by decapitation. The whole pancreas was dissected free of fat tissue and was homogenized in 20 volumes of ice-cold 50 mM, Tris HC1 (pH 7.7 at 25°C) with a Brinkmann Polytron PT 10. The homogenates were centrifuged at 48,000 g for 10 min. Pellets were resuspended in Tris Buffer, centrifuged as above and resuspended in 200 volumes of binding assay buffer (50 mM Tris HC1, pH 7.7 at 25°C, 5 mM dithiothrietol, 0.1 mM bacitracin, 1.2 mM phenylmethane sulfonyl fluoride and 0.5 mM o-phenanthroline). For the binding assay, 25 µl of buffer (for total binding) or unlabeled CCK-8 sulfate to give a final concentration of lµM (for nonspecific binding) or the compounds of Formula I (for determination inhibition of 125I-CCK binding) and 25 ul of ^125 I-CCK-33 (30,000-40,000 cpm) were added to 450 µl of the membrane suspensions in microfuge tubes. All assays were run in duplicate or triplicate. The reaction mixtures were incubated at 37°C for 30 minutes and centrifuged in a Beckman Microfuge (4 minutes) immediately after adding 1 ml of ice-cold incubation buffer. The supernatant was aspirated and discarded, pellets were counted with a Beckman gamma 5000. For Scatchard analysis (Ann. N.Y. Acad. Sci. 51: 660, 1949), ^125I-CCK-33 was progressively diluted with increasing concentrations of CCK-33.

[1] = inhibition of 125I-CCK-33 binding, rat pancreas membranes, 37°C, 30 minutes; read-out: IC50(µM) ^125I-CCK Pancreas

SMILES | IC50 [1] [µM] | IC50 (read-out: IC50(µM) ^125I-CCK Pancreas; inhibition of 125I-CCK-33 binding, rat pancreas membranes, 37°C, 30 minutes) [µM]
O=C(NC(Cc1cccs1)C(=O)Nc1ccccc1C(=O)c1ccccc1F)c1ccsc1 (racemic) [Example 12, 2-N-(N^a-3-Thienoyl-DL-B-(2-thienyl)alanyl)amino 2'-fluorobenzophenone] | 1.3 | 
O=C(CCc1c[nH]c2ccccc12)Nc1ccc(Cl)cc1C(=O)c1ccccc1 [Example 13, 2-N-[3-(3'indolyl)propanoyl]amino-5-chlorobenzophenone] | 10 | 
CC(=O)N[C@@H](Cc1c[nH]c2ccccc12)C(=O)Nc1ccccc1C(=O)c1ccccc1 [Example 16, 2-N-(N^a-acetyl-L-tryptophanyl)aminobenzophenone] | 1 | 
O=C(N[C@@H](Cc1c[nH]c2ccccc12)C(=O)Nc1ccccc1C(=O)c1ccccc1)c1ccsc1 [Example 17, 2-N-(N^a-3-thienoyl-L-tryptophanyl)aminobenzophenone] | 0.19 | 
CC(C)(C)OC(=O)NCC(=O)N[C@@H](Cc1c[nH]c2ccccc12)C(=O)Nc1ccccc1C(=O)c1ccccc1 [Example 18, 2-N-(N^a-Boc-glycyl-L-tryptophanyl)aminobenzophenone] | 8 | 
CSCC[C@H](NC(=O)[C@H](Cc1ccc(O)cc1)NC(=O)OCc1ccccc1)C(=O)NCC(=O)N[C@@H](Cc1c[nH]c2ccccc12)C(=O)Nc1ccccc1C(=O)c1ccccc1 [Example 20, 2-N-(N^a-Benzyloxycarbonyl-L-tryosyl-L-methionyl-glycyl-L-tryptophanyl)aminobenzophenone] (Cbz-YMGW-X1) |  | 2
O=C(N[C@@H](Cc1c[nH]c2ccccc12)C(=O)Nc1ccc(Cl)cc1C(=O)c1ccccc1)c1ccsc1 [Example 21, 2-N-(N^a-3-thienoyl-L-tryptophanyl)amino-5-chlorobenzophenone] | 0.4 | 

More lines, main results first:

IC50 [1] [µM] | SMILES | IC50 (read-out: IC50(µM) ^125I-CCK Pancreas; inhibition of 125I-CCK-33 binding, rat pancreas membranes, 37°C, 30 minutes) [µM]
2.2 | O=C(N[C@@H](CC1CNc2ccccc21)C(=O)Nc1ccc(Cl)cc1C(=O)c1ccccc1)c1ccsc1 (single isomer, unassigned) [Example 22B] | 
0.74 | CC(C)(C)OC(=O)N[C@@H](Cc1c[nH]c2ccccc12)C(=O)Nc1ccc(Cl)cc1C(=O)c1ccccc1 [Example 2, 2-N-(N-a-Boc-L-tryptophanyl)amino-5-chlorobenzo phenone] | 
3.7 | CC(C)(C)OC(=O)N[C@@H](Cc1c[nH]c2ccccc12)C(=O)Nc1ccccc1C(=O)c1ccccc1F [Example 3, 2-N-(N^a-Boc-L-tryptophanyl)amino-2'-fluorobenzo phenone] | 
4.8 | CC(C)(C)OC(=O)N[C@@H](Cc1c[nH]c2ccccc12)C(=O)Nc1ccccc1C(=O)c1ccccc1 [Example 5, 2-N-(N^a-Boc-L-tryptophanyl)aminobenzophenone] | 
0.9 | O=C(N[C@@H](Cc1c[nH]c2ccccc12)C(=O)Nc1ccccc1C(=O)c1ccccc1)c1ccc(Cl)cc1 [Example 15, 2-N-(N^α-p-Chlorobenzoyl-L-tryptophanyl)aminobenzophenone] | 
2.4 | CSCC[C@H](NC(=O)OC(C)(C)C)C(=O)NCC(=O)N[C@@H](Cc1c[nH]c2ccccc12)C(=O)Nc1ccccc1C(=O)c1ccccc1 [Example 19, 2-N-(N^a-Boc-L-methionyl-glycyl-L-tryptophanyl)aminobenzophenone] | 

From patent EP0166355A2, “Substituted aminophenyl compounds and acylaminophenyl compounds and pharmaceutical compositions containing them” (Merck & Co., Inc., priority 1984, dated 1986)
